From ChEMBL document CHEMBL3507680, “University of Dundee, Gates Library screen for HepG2 cell viability”

Test: Human HepG2 cell viability assay in 384 well format
Type: toxicity, cell-based
Parameters: dose 125 nL, time 70.5 hour; cytotoxicity at 70.5 h: concentration not given beside the values
Conditions: HepG2 cells, read-out: Inhibition

Structure (SMILES)	cytotoxicity at 70.5 h
Cc1cn2c(n1)C(CNCc1cnn3ccccc13)CCC2 (stereo unspecified)	-5.6%
Cc1ccc(N(C)C2CCCN(C(=O)Nc3ccc(F)cc3F)C2)cc1 (stereo unspecified)	-2.7%
N#Cc1cc(S(N)(=O)=O)ccc1NC1CCc2c(F)cccc21 (stereo unspecified)	-10.4%
CCN(C)C[C@@H]1CN(S(=O)(=O)c2cccc(Cl)c2)C[C@@H]1CO	2.35%
Cn1nc2c(cc1=O)CN(CC1CCCCO1)CC2 (stereo unspecified)	-2.64%
Cc1cc(CCC(=O)Nc2nncs2)nc(C2CCCN2)n1 (stereo unspecified)	1.25%
CC(C)Oc1cccc(C(=O)C2CCCN(S(=O)(=O)C(C)C)C2)c1 (stereo unspecified)	-7.26%
O=C(Cc1ccc2c(c1)OCCCO2)Nc1nnn[nH]1	-6.98%
O=C1COc2c(cccc2C(=O)N2CCCCC2Cn2cccn2)N1 (stereo unspecified)	-4.26%
Cn1ccc(CNC(=O)Nc2ccc(S(=O)(=O)C(F)F)cc2)c1	-2.09%
O=C(NCc1cccs1)NCC(O)(c1cccs1)C1CC1 (stereo unspecified)	-12.2%
CCSc1cncc(NCc2ccc(N3CCNC(=O)C3)cc2)n1	3.68%
O=C1[C@@H]2CCN(Cc3ccoc3)C[C@@H]2OCCN1c1cccnc1	-13.5%
Cc1nc2c(c(C)c1CC(=O)NC(C)c1ccccc1)c(=O)[nH]n2C (stereo unspecified)	-2.23%
N#Cc1cccc(CNCCC(=O)N2CCc3sccc3C2)c1	-3.34%
Cn1cccc1C(=O)N1CCn2cc(CN3CCCC3)nc2C1	-1.14%
F[C@@H]1CN(CC2CC2)C[C@@H]1OCc1nc2ccccc2[nH]1	14.4%
OC(CN1CCN(CC(F)F)CC1)c1ccc(Br)cc1 (stereo unspecified)	1.14%
CSc1ccc(NCC(=O)NCC(=O)N2CCCC2)cc1F	-2.3%
O=C(Nc1ccccc1)[C@H]1C[C@@H]2CN(C(=O)Nc3ccccc3)C[C@H]1O2	-27.2%
CCc1c(C(=O)NCC2CCS(=O)(=O)C2)cnn1-c1ccccc1 (stereo unspecified)	-4.41%

Structure (SMILES)	cytotoxicity at 70.5 h
CNC(=O)CNC1CC2(CCN(c3ncccn3)CC2)c2ccccc21 (stereo unspecified)	-9.1%
Cc1ccc(CN2CCOC3(COCCN(C(C)C)C3)C2)o1 (stereo unspecified)	-12.3%
CS(=O)(=O)NC(=O)c1ccn(-c2ccccc2Cl)n1	-1.86%
CN1CCOC(CNC(=O)CCCOc2cccc(F)c2)C1 (stereo unspecified)	0.774%
O=c1ccc(-c2cccs2)nn1CN1CCc2ccccc2C1	-23.7%
CN(C)CCN1CCO[C@@H]2CN(C(=O)Cc3ccsc3)CC[C@@H]2C1	-8.58%
Cn1cccc1C(=O)NCc1cnc2n1CCN(c1ccccn1)C2	-3.68%
CC(C)(C)CN1CCC(c2nccnc2Nc2cnccn2)CC1	-1.64%
c1cncc(-c2nnc([C@H]3CCN(CC4CC4)C3)o2)c1	8.27%
NC(=O)C1CCN(C(=O)c2ccc(Sc3ccccn3)cc2)CC1	-2.31%
Cc1ccc2oc(C(=O)N3CCC(C(=O)N4CCCC4)CC3)cc2n1	-14.6%
CSc1nccc(N2C[C@@H]3CC[C@H](C2)N(CC2CCC2)C3=O)n1	13%
COc1ncnc(N)c1CNCCc1ccccc1	-2.72%
C[C@@H]1CN(Cc2cc(C3CCCCC3)no2)CC[C@@]1(O)C1CC1	6.92%
O=C(Nc1cccn(CC(F)(F)F)c1=O)c1ccc(F)cc1	19.4%
O=C(N1CCOCC1)[C@@]12CCO[C@@H]1CCN(C1CCCC1)C2	-15.6%
Cc1ccc(C(=O)N2CCO[C@H]3[C@H](OCc4ccccn4)CC[C@@H]32)o1	-3.92%
CC(C(=O)NCC1(c2c(F)cccc2F)CCCC1)S(C)(=O)=O (stereo unspecified)	-7.67%
CCc1n[nH]c(C2CN(C(=O)c3cnc(C)cn3)CCO2)n1 (stereo unspecified)	-10.6%
O=C(CNc1ccc(OC2CCOC2)cc1)NCc1cccs1 (stereo unspecified)	-18.3%
COc1cc(CN(C)CCc2ccncc2)c(SC)cc1OC	-7.73%

Structure (SMILES)	cytotoxicity at 70.5 h
CCN(CC)c1nc2sc(C(=O)N3CCNC(=O)C3)cc2s1	-8.64%
N#CCCN(CC1CC1)Cn1cc(Cl)cn1	34.6%
CC(C(=O)Nc1ccnn1C(C)C)N1CCN(Cc2ccccc2)CC1 (stereo unspecified)	-7.81%
CN(C)C1(CNC(=O)C/C=C/c2ccc(F)cc2)CCOCC1	22.9%
CCn1cnnc1CNC(=O)c1ccc(Cl)cc1F	-4.7%
CCCc1n[nH]c(C2CN(Cc3nnc(C4CC4)n3C)CCO2)n1 (stereo unspecified)	-5.29%
CC(=O)NC1CCCN(C(=O)NCc2cccnc2-n2cccn2)C1 (stereo unspecified)	3.84%
O=C(CCOc1ccccc1)N1CCCC(c2ncc[nH]2)C1 (stereo unspecified)	-20.2%
Cc1nccn1C1CCCN(C(=O)CCc2nc(C(C)C)no2)C1 (stereo unspecified)	-11.2%
CC(C)C(C)NC(=O)Nc1ccc(CC(N)=O)cc1 (stereo unspecified)	-3.59%
O=C1C(NCc2nnc3n2CCCC3)CCCN1c1cccc(F)c1 (stereo unspecified)	-3.38%
Cc1cccc2ncnc(N3CCOC(C)C3)c12 (stereo unspecified)	2.61%
Cc1ccc(N2CCCC(NCc3ccccn3)C2)nn1 (stereo unspecified)	25.6%
O=C(O)c1cc(S(=O)(=O)N2CCOc3ccccc32)ccc1Br	-2.35%
c1ccc(N2CCOC3(CCCN(c4ncccn4)C3)C2)nc1 (stereo unspecified)	-5.71%
Cc1noc(C)c1C(=O)N1CCCN(Cc2cscn2)CC1	-2.11%
Cc1noc(C)c1CS(=O)(=O)CC(=O)N1CCc2sccc2C1	-3.02%
COc1ccc(-n2ncc3c2NC(=O)CSC3C(C)C)cc1 (stereo unspecified)	-3.9%
CCCn1nccc1C(=O)N1CCCC(C(=O)CCc2ccccc2)C1 (stereo unspecified)	-2.61%
Cc1cc(C)cc(CNC(C)c2c(C)nn(C)c2C)c1 (stereo unspecified)	-13.1%
CN(C)C(=O)c1cnc2n1CCN(Cc1ccccc1)C2	-15.3%

Structure (SMILES)	cytotoxicity at 70.5 h
CC(c1nc(C(C)(C)C)no1)N1CCC(N2CCCC2)CC1 (stereo unspecified)	4.89%
CCN(CC1CCOC1)C(=O)Nc1ccc(OCC(F)(F)F)nc1 (stereo unspecified)	-2.33%
Cc1noc(C(C)C)c1C(=O)NCc1cccc(CN(C)C)c1	-1.69%
COc1ccc(NC(=O)CNc2ccc(Br)cc2F)cc1	-1.21%
CCc1nnc2n1CCN(C(=O)c1cc(C)n(-c3ccccc3)c1C)C2	-4.27%
CCC(CC)n1nc(C)cc1NC(=O)CC1CCOCC1	-8.16%
COCCNC(=O)[C@@H]1CN(c2ncccn2)C[C@H]2OCC[C@H]21	-2.54%
CCN(CC)c1nc(C)cc(C(=O)Nc2cccc(C(N)=O)c2)n1	-7.03%
N[C@@H]1CC[C@@H]1NC(=O)c1ccccc1OC(F)(F)C(F)F	3.75%
C[C@@H]1CN(c2nc(N)nc3c2CCC3)CC[C@@]1(O)C1CCC1	4.77%
O=C1CCC(=O)c2oc3ccc(Br)cc3c2N1	-12.5%
O=C1CC(c2cccs2)Cc2nc(O)c(C(=O)N3CCCC3)cc21 (stereo unspecified)	-4.55%
Cc1nccn1[C@@H]1CC[C@@H](NC(=O)CCCn2cccn2)[C@H]1O	19.3%
Cc1sc(-n2cnnn2)c(C(=O)NC(C)C)c1C	-10.9%
COc1ccc(CN2CCc3nc(C4CCCCN4C)ncc3C2)cc1 (stereo unspecified)	-10.4%
O=C(c1cccc(-c2ncc[nH]2)c1)N1CCC(N2CCCC(O)C2)CC1 (stereo unspecified)	4.83%
CCn1ncc2c1C(COC)N(C(=O)Cc1cccs1)CC2 (stereo unspecified)	-0.61%
Cc1c(C(=O)N2CCCC(n3cncn3)C2)cnn1C (stereo unspecified)	3.32%
